{
  "source": "patent US9370494B2",
  "about": "“Methods for treating hepatocellular carcinoma” (ABRAXIS BIOSCIENCE, LLC, priority 2010, dated 2016)",
  "key": {"[1]": {"tested_on": "SK-HEP1/Luc+ xenograft", "experiment": "SK-HEP1/Luc+ xenograft model", "conditions": "35 mmol/kg every two days for five times", "procedure": "SK-HEP1 luciferase stable clone was prepared by transfecting SK-HEP1 cells with firefly luciferase expression vector and selected with 500 ug/ml Geneticin (Gibco-BRL) for 4 weeks. Individual colonies were screened for bioluminescence activity using the Xenogen IVIS® imager (Alameda, Calif., USA). Clones with stable luminescence expression were used for in-vivo studies.\nMale BALB/c nude mice at 6-8 weeks old with an average body weight of about 20 g were anesthetized by intraperitoneal injection of ketamine hydrochloride (120 mg/kg) (Fort Dodge Animal Health, Fort Dodge, Iowa, USA) plus xylazine (6 mg/kg) (Phoenix Scientific, Inc., St. Joseph, Mo., USA). Anesthetized animals then received 5×10^6 SK-HEP1/Luc+ cells suspended in 200 μl serum free medium by subcutaneous injection below the dorsal flank. Drug treatments started on day 14 after tumor cells inoculation. […] All drugs were given every two days for five times, at a dose of 35 mmol/kg. See Desai N. et al., Clinical Cancer Research, 12:1317-24 (2006). Tumor growth was monitored twice weekly by in-vivo bioluminescent imaging and by external caliper measurements using the formula of [(Length×Width^2)/2] for 24 days. For in-vivo bioluminescent imaging, 150 mg/kg D-luciferin were given by intraperitoneal injection and ten minutes after luciferin injection, mice were anesthetized by isoflurane and tumor cell viability was measured by the Xenogen IVIS® imager."}, "[2]": {"tested_on": "HCC cells", "conditions": "US Patent App. No. 2008/0045584; cited from earlier work"}, "[3]": {"tested_on": "Hep3B cells", "experiment": "MTT cell viability assay after siRNA transfection (STMN1 knockdown)", "type": "cell-based, human", "procedure": "Cell viability was measured by MTT Assay. Cells grown in 96-well plates at density of 3000 cells per well were treated with drugs or siRNA transfection as indicated. […] The formazan formed was measured at 570 nm and cell viability is expressed as a percentage of maximum absorbance from 5 replicates in 3 independent experiments. The concentration of drug that inhibited cell survival by 50% (IC50) was determined from cell survival curves.\nsiRNA sequences included STMN1 siGENOME SMARTpool (si-STMN1) and siCONTROL Non-Targeting siRNA (si-mock). All siRNAs were chemically synthesized as double stranded RNA (Dharmacon) and introduced into cell lines by Lipofectamine 2000 (Invitrogen, Carlsbad, Calif., USA) according to manufacturer's instructions. Briefly, cells were incubated with 100 nM siRNA (si-STMN1 or si-mock). Six hours after transfection, medium was replaced by fresh growing medium. The expression of STMN1 was monitored by Western blot, which indicated a repressed expression for at least 3 days."}, "[4]": {"tested_on": "Hep3B, SK-HEP1 and HKCl-9 HCC cell lines", "experiment": "MTT cell viability assay in HCC cell lines", "type": "cell-based", "conditions": "Homo sapiens; 48 h; range over the 3 cell lines Hep3B, SK-HEP1, HKCl-9", "experimental": "Human liver cancer cell lines Hep3B and SK-HEP1 acquired from ATCC were cultured in Dulbecco's modified Eagle medium with Glutamax-1 (Gibco-BRL, Grand Island, N.Y., USA) supplemented with 10% fetal bovine serum. HKCl-9 (as described in Chan K.Y. Y. et al., Modern Pathology 19:1546-54 (2006)) was cultured in AIMV medium (Gibco-BRL) supplemented with 1% L-Glutamine and 10% fetal bovine serum. All cells were cultured under a humidified atmosphere of 5% CO2 at 37° C."}, "[5]": {"tested_on": "HCC patients", "conditions": "British Journal of Cancer 1998; cited from earlier work"}, "[6]": {"tested_on": "hepatitis B-related HCC patients", "conditions": "advanced stage patients; placebo 4.2 months; cited from earlier work"}},
  "data": [
    {"smiles": "CC(=O)O[C@@]12CO[C@@H]1C[C@H](O)[C@@]1(C)C(=O)[C@H](O)C3=C(C)[C@@H](OC(=O)[C@H](O)[C@@H](NC(=O)OC(C)(C)C)c4ccccc4)C[C@@](O)([C@@H](OC(=O)c4ccccc4)[C@H]21)C3(C)C", "note": "[Docetaxel]", "values": [
      {"measurement": "Toxicity (weight loss, deaths)", "setting": "[1]", "result": "particularly severe"},
      {"measurement": "Activity against HCC cells relative to paclitaxel", "setting": "[2]", "result": "more active against HCC cells than paclitaxel"}
    ]},
    {"smiles": "COc1cccc2c1C(=O)c1c(O)c3c(c(O)c1C2=O)C[C@@](O)(C(=O)CO)C[C@@H]3O[C@H]1C[C@H](N)[C@H](O)[C@H](C)O1", "note": "[Doxorubicin]", "values": [
      {"measurement": "Toxicity (weight loss, deaths)", "setting": "[1]", "result": "particularly severe"},
      {"measurement": "Fold more sensitive after STMN1 knockdown (si-STMN1 vs si-mock)", "setting": "[3]", "result": "no effect"},
      {"measurement": "IC50", "setting": "[4]", "result": "106 to 456", "unit": "nM"}
    ]},
    {"smiles": "CC(=O)O[C@H]1C(=O)[C@@]2(C)[C@H]([C@H](OC(=O)c3ccccc3)[C@]3(O)C[C@H](OC(=O)[C@H](O)[C@@H](NC(=O)c4ccccc4)c4ccccc4)C(C)=C1C3(C)C)[C@]1(OC(C)=O)CO[C@@H]1C[C@@H]2O", "note": "[Paclitaxel]", "values": [
      {"measurement": "Toxicity (weight loss, deaths)", "setting": "[1]", "result": "particularly severe"},
      {"measurement": "Anti-cancer effect in HCC patients", "setting": "[5]", "result": "no significant anti-cancer effect"}
    ]},
    {"smiles": "CNC(=O)c1cc(Oc2ccc(NC(=O)Nc3ccc(Cl)c(C(F)(F)F)c3)cc2)ccn1", "note": "[Sorafenib]", "values": [
      {"measurement": "Median overall survival", "setting": "[6]", "result": 6.5, "unit": "months"}
    ]}
  ]
}
